Measured values published in US20230085307A1, “PYRIDAZINONE COMPOUND AND HERBICIDE” (NISSAN CHEMICAL CORPORATION, priority 2019, published 2023).

What was measured:
oval-leafed pondweed = test: Test Example 1: herbicidal activity, application before weed generation under submerged conditions (Table 16, symbol C); assay type: in vivo, oval-leafed pondweed (Monochoria vaginalis)
How it was run: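 Submerged Wagner pots (alluvial soil, 4 cm water) sown with weed seeds and planted with 2.5-leaf rice seedlings; emulsifiable concentrate diluted in water applied to water surface on sowing day. Held in greenhouse at 25-30 °C; injury scored 0-5 by herbicidal rate after three weeks.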

Japanese bulrush = test: Test Example 2: herbicidal activity, application during weed generation under submerged conditions (Table 17, symbol B); assay type: in vivo, Japanese bulrush (Schoenoplectus juncoides); conditions: for herbicidal effect grade, B: Japanese bulrush: application during weed generation under submerged conditions
How it was run: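 Alluvial soil in Wagner pots was flooded to 4 cm depth and sown with the three weeds together; pots were kept in a greenhouse at 25° C. to 30° C. At the one to two leaf stage, an emulsion formulation diluted in water to a set rate went onto the water surface; scored three weeks later.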

Chinese sprangletop = test: Test Example 3: herbicidal effect by foliage application, Wagner pot (Table 18, symbol D); assay type: in vivo, chinese sprangletop (Leptochloa chinensis)
How it was run: (§1)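 Plants were sown in alluvial soil held under 0.1–0.5 cm standing water and grown 14 days in a greenhouse at 25–30 °C. An emulsifiable formulation, water-diluted to the set dose, was then sprayed onto the foliage, and effects were scored three weeks later using previously defined criteria.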

rice flat sedge = test: Test Example 3: herbicidal effect by foliage application, Wagner pot (Table 18, symbol E); assay type: in vivo, rice flat sedge (Cyperus iria)
How it was run: as §1

green foxtail = test: Test Example 4: herbicidal effect by soil treatment (Table 19, symbol G); assay type: in vivo, green foxtail (Setaria viridis)
How it was run: (§2)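 Scoring uses the grading scale of an earlier test, three weeks post-application. Treatment consists of spraying a diluted emulsion formulation across the surface of sterilized diluvial soil in which seeds are buried near 1.5 cm deep; boxes are kept in a greenhouse between 25° C. and 30° C.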

wild oat = test: Test Example 4: herbicidal effect by soil treatment (Table 19, symbol I); assay type: in vivo, wild oat (Avena fatua)
How it was run: as §2

Italian ryegrass [1] = test: Test Example 4: herbicidal effect by soil treatment (Table 19, symbol K); assay type: in vivo, Italian ryegrass (Lolium multiflorum)
How it was run: as §2

windgrass = test: Test Example 4: herbicidal effect by soil treatment (Table 19, symbol L); assay type: in vivo, windgrass (Apera spica-venti)
How it was run: as §2

velvetleaf [2] = test: Test Example 4: herbicidal effect by soil treatment (Table 19, symbol M); assay type: in vivo, velvetleaf (Abutilon theophrasti)
How it was run: as §2

redroot pigweed = test: Test Example 4: herbicidal effect by soil treatment (Table 19, symbol N); assay type: in vivo, redroot pigweed (Amaranthus retroflexus)
How it was run: as §2

lambsquarters = test: Test Example 4: herbicidal effect by soil treatment (Table 19, symbol O); assay type: in vivo, lambsquarters (Chenopodium album)
How it was run: as §2

persian speedwell = test: Test Example 4: herbicidal effect by soil treatment (Table 19, symbol R); assay type: in vivo, Persian speedwell (Veronica persica)
How it was run: as §2

barnyard grass = test: Test Example 5: herbicidal effect by foliage application, plastic box (Table 20, symbol H); assay type: in vivo, barnyard grass (Echinochloa crus-galli); conditions: foliage application, evaluated 3 weeks after application
How it was run: (§3)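 Post-emergence foliar test in sterilized diluvial soil. Compound applied as water-diluted emulsion at a predetermined rate to 14-day-old plants; evaluation at three weeks.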

blackgrass = test: Test Example 5: herbicidal effect by foliage application, plastic box (Table 20, symbol J); assay type: in vivo, blackgrass (Alopecurus myosuroides); conditions: foliage application, evaluated 3 weeks after application
How it was run: as §3

Italian ryegrass [3] = test: Test Example 5: herbicidal effect by foliage application, plastic box (Table 20, symbol K); assay type: in vivo, Italian ryegrass (Lolium multiflorum); conditions: foliage application, evaluated 3 weeks after application
How it was run: as §3

velvetleaf [4] = test: Test Example 5: herbicidal effect by foliage application, plastic box (Table 20, symbol M); assay type: in vivo, velvetleaf (Abutilon theophrasti); conditions: foliage application, evaluated 3 weeks after application
How it was run: as §3

chickweed = test: Test Example 5: herbicidal effect by foliage application, plastic box (Table 20, symbol P); assay type: in vivo, common chickweed (Stellaria media); conditions: foliage application, evaluated 3 weeks after application
How it was run: as §3

[5] = amount of applied herbicide 320 g/ha
[6] = amount of applied herbicide 402 g/ha

CCCOc1ccc(-c2oc3ccc(C)cc3c2-c2c(O)c(C)nn(C)c2=O)cc1 [9-049]
Herbicidal effect, C: oval-leafed pondweed (oval-leafed pondweed; [5]): 5 (Herbicidal rate of 90% or more (almost completely withered)) | herbicidal effect rating, B: Japanese bulrush (Japanese bulrush; AAH 320 g/ha, application during weed generation, submerged conditions): 4 (Herbicidal rate of 70% or more and less than 90%) | Herbicidal effect on D (Chinese sprangletop), foliage application (Chinese sprangletop; [5]): 2 (Herbicidal rate of 20% or more and less than 40%) | Herbicidal effect on E (rice flat sedge), foliage application (rice flat sedge; [5]): 3 (Herbicidal rate of 40% or more and less than 70%) | G: green foxtail, herbicidal effect grade (green foxtail; [5]): 4 (Herbicidal rate of 70% or more and less than 90%) | I: wild oat, herbicidal effect grade (wild oat; [5]): 0 (Herbicidal rate of 5% or less (almost no effect)) | K: Italian ryegrass, herbicidal effect grade (Italian ryegrass [1]; [5]): 5 (Herbicidal rate of 90% or more (almost completely withered)) | L: windgrass, herbicidal effect grade (windgrass; [5]): 0 (Herbicidal rate of 5% or less (almost no effect)) | M: velvetleaf, herbicidal effect grade (velvetleaf [2]; [5]): 3 (Herbicidal rate of 40% or more and less than 70%) | N: redroot pigweed, herbicidal effect grade (redroot pigweed; [5]): 5 (Herbicidal rate of 90% or more (almost completely withered)) | O: lambsquarters, herbicidal effect grade (lambsquarters; [5]): 4 (Herbicidal rate of 70% or more and less than 90%) | R: persian speedwell, herbicidal effect grade (persian speedwell; [5]): 5 (Herbicidal rate of 90% or more (almost completely withered)) | H (barnyard grass) herbicidal effect grade (barnyard grass; 320 g/ha): 5 (Herbicidal rate of 90% or more (almost completely withered)) | J (blackgrass) herbicidal effect grade (blackgrass; 320 g/ha): 4 (Herbicidal rate of 70% or more and less than 90%) | K (Italian ryegrass) herbicidal effect grade (Italian ryegrass [3]; 320 g/ha): 5 (Herbicidal rate of 90% or more (almost completely withered)) | M (velvetleaf) herbicidal effect grade (velvetleaf [4]; 320 g/ha): 5 (Herbicidal rate of 90% or more (almost completely withered)) | P (chickweed) herbicidal effect grade (chickweed; 320 g/ha): 5 (Herbicidal rate of 90% or more (almost completely withered))

CCCC(=O)Oc1c(C)nn(C)c(=O)c1-c1c(-c2ccc(SCC)cc2)oc2ccc(C)cc12 [9-058]
Herbicidal effect, C: oval-leafed pondweed (oval-leafed pondweed; [5]): 5 (Herbicidal rate of 90% or more (almost completely withered)) | herbicidal effect grade, B: Japanese bulrush (Japanese bulrush; [5]): 3 (Herbicidal rate of 40% or more and less than 70%) | Herbicidal effect on D (Chinese sprangletop), foliage application (Chinese sprangletop; [5]): 3 (Herbicidal rate of 40% or more and less than 70%) | Herbicidal effect on E (rice flat sedge), foliage application (rice flat sedge; [5]): 5 (Herbicidal rate of 90% or more (almost completely withered)) | G: green foxtail, herbicidal effect grade (green foxtail; [5]): 5 (Herbicidal rate of 90% or more (almost completely withered)) | I: wild oat, herbicidal effect grade (wild oat; [5]): 0 (Herbicidal rate of 5% or less (almost no effect)) | K: Italian ryegrass, herbicidal effect grade (Italian ryegrass [1]; [5]): 5 (Herbicidal rate of 90% or more (almost completely withered)) | L: windgrass, herbicidal effect grade (windgrass; [5]): 0 (Herbicidal rate of 5% or less (almost no effect)) | M: velvetleaf, herbicidal effect grade (velvetleaf [2]; [5]): 3 (Herbicidal rate of 40% or more and less than 70%) | N: redroot pigweed, herbicidal effect grade (redroot pigweed; [5]): 5 (Herbicidal rate of 90% or more (almost completely withered)) | O: lambsquarters, herbicidal effect grade (lambsquarters; [5]): 5 (Herbicidal rate of 90% or more (almost completely withered)) | R: persian speedwell, herbicidal effect grade (persian speedwell; [5]): 5 (Herbicidal rate of 90% or more (almost completely withered)) | H (barnyard grass) herbicidal effect grade (barnyard grass; 320 g/ha): 4 (Herbicidal rate of 70% or more and less than 90%) | J (blackgrass) herbicidal effect grade (blackgrass; 320 g/ha): 3 (Herbicidal rate of 40% or more and less than 70%) | K (Italian ryegrass) herbicidal effect grade (Italian ryegrass [3]; 320 g/ha): 5 (Herbicidal rate of 90% or more (almost completely withered)) | M (velvetleaf) herbicidal effect grade (velvetleaf [4]; 320 g/ha): 5 (Herbicidal rate of 90% or more (almost completely withered)) | P (chickweed) herbicidal effect grade (chickweed; 320 g/ha): 5 (Herbicidal rate of 90% or more (almost completely withered))

Cc1ccc2oc(-c3ccc(SC(C)C)cc3)c(-c3c(O)c(C)nn(C)c3=O)c2c1 [9-059]
Herbicidal effect, C: oval-leafed pondweed (oval-leafed pondweed; [5]): 3 (Herbicidal rate of 40% or more and less than 70%) | herbicidal effect grade, B: Japanese bulrush (Japanese bulrush; [5]): 3 (Herbicidal rate of 40% or more and less than 70%) | Herbicidal effect on D (Chinese sprangletop), foliage application (Chinese sprangletop; [5]): 3 (Herbicidal rate of 40% or more and less than 70%) | Herbicidal effect on E (rice flat sedge), foliage application (rice flat sedge; [5]): 5 (Herbicidal rate of 90% or more (almost completely withered)) | G: green foxtail, herbicidal effect grade (green foxtail; [5]): 3 (Herbicidal rate of 40% or more and less than 70%) | I: wild oat, herbicidal effect grade (wild oat; [5]): 0 (Herbicidal rate of 5% or less (almost no effect)) | K: Italian ryegrass, herbicidal effect grade (Italian ryegrass [1]; [5]): 4 (Herbicidal rate of 70% or more and less than 90%) | L: windgrass, herbicidal effect grade (windgrass; [5]): 0 (Herbicidal rate of 5% or less (almost no effect)) | M: velvetleaf, herbicidal effect grade (velvetleaf [2]; [5]): 3 (Herbicidal rate of 40% or more and less than 70%) | N: redroot pigweed, herbicidal effect grade (redroot pigweed; [5]): 5 (Herbicidal rate of 90% or more (almost completely withered)) | O: lambsquarters, herbicidal effect grade (lambsquarters; [5]): 5 (Herbicidal rate of 90% or more (almost completely withered)) | R: persian speedwell, herbicidal effect grade (persian speedwell; [5]): 5 (Herbicidal rate of 90% or more (almost completely withered)) | H (barnyard grass) herbicidal effect grade (barnyard grass; 320 g/ha): 3 (Herbicidal rate of 40% or more and less than 70%) | J (blackgrass) herbicidal effect grade (blackgrass; 320 g/ha): 1 (Herbicidal rate of 5% or more and less than 20%) | K (Italian ryegrass) herbicidal effect grade (Italian ryegrass [3]; 320 g/ha): 5 (Herbicidal rate of 90% or more (almost completely withered)) | M (velvetleaf) herbicidal effect grade (velvetleaf [4]; 320 g/ha): 5 (Herbicidal rate of 90% or more (almost completely withered)) | P (chickweed) herbicidal effect grade (chickweed; 320 g/ha): 5 (Herbicidal rate of 90% or more (almost completely withered))

CCCC(=O)Oc1c(C)nn(C)c(=O)c1-c1c(-c2ccc(SC(C)C)cc2)oc2ccc(C)cc12 [9-060]
Herbicidal effect, C: oval-leafed pondweed (oval-leafed pondweed; [6]): 5 (Herbicidal rate of 90% or more (almost completely withered)) | herbicidal effect grade, B: Japanese bulrush (Japanese bulrush; [6]): 3 (Herbicidal rate of 40% or more and less than 70%) | Herbicidal effect on D (Chinese sprangletop), foliage application (Chinese sprangletop; [6]): 2 (Herbicidal rate of 20% or more and less than 40%) | Herbicidal effect on E (rice flat sedge), foliage application (rice flat sedge; [6]): 5 (Herbicidal rate of 90% or more (almost completely withered)) | G: green foxtail, herbicidal effect grade (green foxtail; [6]): 3 (Herbicidal rate of 40% or more and less than 70%) | I: wild oat, herbicidal effect grade (wild oat; [6]): 0 (Herbicidal rate of 5% or less (almost no effect)) | K: Italian ryegrass, herbicidal effect grade (Italian ryegrass [1]; [6]): 4 (Herbicidal rate of 70% or more and less than 90%) | L: windgrass, herbicidal effect grade (windgrass; [6]): 0 (Herbicidal rate of 5% or less (almost no effect)) | M: velvetleaf, herbicidal effect grade (velvetleaf [2]; [6]): 3 (Herbicidal rate of 40% or more and less than 70%) | N: redroot pigweed, herbicidal effect grade (redroot pigweed; [6]): 5 (Herbicidal rate of 90% or more (almost completely withered)) | O: lambsquarters, herbicidal effect grade (lambsquarters; [6]): 4 (Herbicidal rate of 70% or more and less than 90%) | R: persian speedwell, herbicidal effect grade (persian speedwell; [6]): 5 (Herbicidal rate of 90% or more (almost completely withered)) | H (barnyard grass) herbicidal effect grade (barnyard grass; 402 g/ha): 3 (Herbicidal rate of 40% or more and less than 70%) | J (blackgrass) herbicidal effect grade (blackgrass; 402 g/ha): 1 (Herbicidal rate of 5% or more and less than 20%) | K (Italian ryegrass) herbicidal effect grade (Italian ryegrass [3]; 402 g/ha): 5 (Herbicidal rate of 90% or more (almost completely withered)) | M (velvetleaf) herbicidal effect grade (velvetleaf [4]; 402 g/ha): 5 (Herbicidal rate of 90% or more (almost completely withered)) | P (chickweed) herbicidal effect grade (chickweed; 402 g/ha): 5 (Herbicidal rate of 90% or more (almost completely withered))
